One may read the DC50 as the concentration at which degradation of the target reaches its halfway point.

T1 sequence (P50750 whole entry): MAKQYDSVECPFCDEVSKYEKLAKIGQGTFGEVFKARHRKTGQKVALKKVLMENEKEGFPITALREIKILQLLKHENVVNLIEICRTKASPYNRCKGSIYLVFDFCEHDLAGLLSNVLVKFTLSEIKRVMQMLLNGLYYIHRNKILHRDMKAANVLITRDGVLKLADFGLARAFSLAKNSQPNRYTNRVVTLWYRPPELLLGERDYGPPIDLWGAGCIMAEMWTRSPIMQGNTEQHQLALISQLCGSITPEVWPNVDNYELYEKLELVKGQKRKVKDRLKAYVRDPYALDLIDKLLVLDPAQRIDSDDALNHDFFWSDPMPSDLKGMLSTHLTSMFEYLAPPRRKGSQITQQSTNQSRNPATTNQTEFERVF
T1 sequence (O60563 whole entry partner): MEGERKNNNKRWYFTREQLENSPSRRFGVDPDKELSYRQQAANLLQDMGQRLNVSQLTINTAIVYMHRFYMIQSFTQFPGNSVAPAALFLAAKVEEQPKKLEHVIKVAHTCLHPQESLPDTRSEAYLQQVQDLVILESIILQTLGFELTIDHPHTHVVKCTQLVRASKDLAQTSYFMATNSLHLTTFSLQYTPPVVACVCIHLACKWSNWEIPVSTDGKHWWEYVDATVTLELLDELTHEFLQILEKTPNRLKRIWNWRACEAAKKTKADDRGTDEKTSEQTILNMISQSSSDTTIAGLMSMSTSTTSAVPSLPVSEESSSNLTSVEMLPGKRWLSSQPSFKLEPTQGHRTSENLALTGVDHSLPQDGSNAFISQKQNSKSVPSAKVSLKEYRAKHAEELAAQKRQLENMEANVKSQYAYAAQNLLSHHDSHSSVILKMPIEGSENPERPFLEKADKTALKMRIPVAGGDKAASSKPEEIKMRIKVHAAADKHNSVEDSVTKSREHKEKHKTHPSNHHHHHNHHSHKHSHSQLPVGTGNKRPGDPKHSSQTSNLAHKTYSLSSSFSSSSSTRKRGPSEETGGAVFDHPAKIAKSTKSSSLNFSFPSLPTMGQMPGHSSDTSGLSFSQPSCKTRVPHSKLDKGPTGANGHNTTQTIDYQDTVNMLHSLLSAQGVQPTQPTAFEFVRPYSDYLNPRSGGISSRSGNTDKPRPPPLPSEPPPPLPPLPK

The test addresses T1, CDK9 (Homo sapiens, UniProt P50750).
T1 construct: NCIH211 cells with endogenously tagged N-terminal CDK9-HiBit; endogenous in cells; host or cells: NCIH211 cells (endogenous CDK9 locus tagged with HiBit)
Briefly: CDK9 degradation by HiBit assay, NCIH211 cells. The format is cell-based. The conditions noted are these: NCIH211 cells with endogenously tagged N-terminal CDK9-HiBit, 24 hours incubation; read-out: HiBit-NCIH211.2 DC50. The protocol:
Exemplary compounds of the invention were tested for degradation of CDK9. The compounds were tested in 10-dose DC50 duplicate mode with a 3-fold serial dilution starting at 10 μM by HiBit assay (Promega, Inc) as a direct measurement of CDK9 presence, with incubation time of 24 hours using either NCIH211 cells with endogenously tagged N-terminal CDK9-HiBit or NCIH1048 cells with endogenously tagged N-terminal CDK9-HiBit. A control compound (THAL-SNS-032, CAS 2139287-33-3) was tested in 10-dose DC50 mode with 3-fold serial dilution starting at 10 μM. Data was normalized to positive (medium only) and negative (cells with no treatment) controls and curve fits were analyzed with CDK9 as % response vs. log [compound concentration] using a 4-parameter logistic model by GraphPad software. For Table 2: A is <100, B is <1000 C is <10,000, D is >10,000 and ND is Not Determined.
(In general: With HiBiT, luminescence reflects the tagged protein that the partner subunit can reach.)
On to `CCC(CC)c1cc(N[C@H]2CC[C@H](NC(=O)COCCOCCNC(=O)COc3cccc4c3C(=O)N(C3CCC(=O)NC3=O)C4=O)C2)n2nccc2n1` (stereo partly drawn) [Compound 1.0, 2-[2-[2-[[2-[2-(2,6-dioxo-3-piperidyl)-1,3-dioxo-isoindolin-4 yl]oxyacetyl]amino]ethoxy]ethoxy]-N-[(1S,3S)-3-[[5-(1-ethylpropyl)pyrazolo[1,5-a]pyrimidin-7-yl]amino]cyclopentyl]acetamide], for which the 50% degradation concentration (DC50) is over 10 µM.

For the molecule `CCC(CC)c1cc(N[C@H]2CC[C@H](NC(=O)COCCOCCOCCNC(=O)COc3cccc4c3C(=O)N(C3CCC(=O)NC3=O)C4=O)C2)n2nccc2n1` (stereo partly drawn) [Compound 2.0, 2-[2-[2-[2-[[2-[2-(2,6-dioxo-3-piperidyl)-1,3-dioxo-isoindolin-4-yl]oxyacetyl]amino]ethoxy]ethoxy]ethoxy]-N-[(1S,3S)-3-[[5-(1-ethylpropyl)pyrazolo[1,5-a]pyrimidin-7-yl]amino]cyclopentyl]acetamide], the half-maximal degradation concentration (DC50) was over 10 µM.

Consider `CCC(CC)c1cc(N[C@H]2CC[C@H](NC(=O)COCCOCCOCCNC(=O)COc3cccc4c3C(=O)N(C3CCC(=O)NC3=O)C4=O)C2)n2ncc(Cl)c2n1` (stereo partly drawn) [Compound 3.0, N-[(1S,3S)-3-[[3-chloro-5-(1-ethylpropyl)pyrazolo[1,5-a]pyrimidin-7-yl]amino]cyclopentyl]-2-[2-[2-[2-[[2-[2-(2,6-dioxo-3-piperidyl)-1,3-dioxo-isoindolin-4-yl]oxyacetyl]amino]ethoxy]ethoxy]ethoxy]acetamide], for which the DC50 was over 10 µM.

On to `CCC(CC)c1cc(N[C@H]2CC[C@H](NC(=O)COCCOCCNC(=O)COc3cccc4c3C(=O)N(C3CCC(=O)NC3=O)C4=O)C2)n2ncc(Cl)c2n1` (stereo partly drawn) [Compound 4.0, N-[(1S,3S)-3-[[3-chloro-5-(1-ethylpropyl)pyrazolo[1,5-a]pyrimi-din-7-yl]amino]cyclopentyl]-2-[2-[2-[[2-[2-(2,6-dioxo-3-piperidyl)-1,3-dioxo-isoindolin-4-yl]oxyacetyl]amino]ethoxy]ethoxy]acetamide], for which the half-maximal degradation concentration (DC50) is over 10 µM.

`CCC(CC)c1cc(N[C@H]2CC[C@H](NCCOCCOCCOCCNc3cccc4c3C(=O)N(C3CCC(=O)NC3=O)C4=O)C2)n2nccc2n1` (stereo partly drawn) [Compound 7.0, 2-(2,6-dioxo-3-piperidyl)-4-[2-[2-[2-[2-[[(1S,3S)-3-[[5-(1-ethylpropyl)pyrazolo[1,5-a]pyrimidin-7-yl]amino]cyclopentyl]amino]ethoxy]ethoxy]ethoxy]ethylamino]isoindoline-1,3-dione]: the DC50 is over 10 µM.

Consider `CCC(CC)c1cc(N[C@H]2CC[C@H](NCCOCCOCCOCCOCCNc3cccc4c3C(=O)N(C3CCC(=O)NC3=O)C4=O)C2)n2nccc2n1` (stereo partly drawn) [Compound 8.0, 2-(2,6-dioxo-3-piperidyl)-4-[2-[2-[2-[2-[2-[[(1S,3S)-3-[[5-(1-ethylpropyl)pyrazolo[1,5-a]pyrimidin-7-yl]amino]cyclopentyl]amino]ethoxy]ethoxy]ethoxy]ethoxy]ethylamino]isoindoline-1,3-dione], for which the DC50 is over 10 µM.

On to `CCC(CC)c1cc(N[C@H]2CC[C@H](NCc3cn(CCOCCOCCNc4cccc5c4C(=O)N(C4CCC(=O)NC4=O)C5=O)nn3)C2)n2nccc2n1` (stereo partly drawn) [Compound 9.0, 2-(2,6-dioxo-3-piperidyl)-4-[2-[2-[2-[4-[[[(1S,3S)-3-[[5-(1-ethylpropyl)pyrazolo[1,5-a]pyrimidin-7-yl]amino]cyclopentyl]amino]methyl]triazol-1-yl]ethoxy]ethoxy]ethylamino]isoindoline-1,3-dione], for which the half-maximal degradation concentration (DC50) was under 10 µM.

With `CCC(CC)c1cc(N[C@H]2CC[C@H](NCc3cn(CCOCCOCCOCCNc4cccc5c4C(=O)N(C4CCC(=O)NC4=O)C5=O)nn3)C2)n2nccc2n1` (stereo partly drawn) [Compound 10.0, 2-(2,6-dioxo-3-piperidyl)-4-[2-[2-[2-[2-[4-[[[(1S,3S)-3-[[5-(1-ethylpropyl)pyrazolo[1,5-a]pyrimidin-7-yl]amino]cyclopentyl]amino]methyl]triazol-1-yl]ethoxy]ethoxy]ethoxy]ethylamino]isoindoline-1,3-dione], the half-maximal degradation concentration (DC50) was under 10 µM.

With `CCC(CC)c1cc(N[C@H]2CC[C@H](NCCOCCOCCOCCNc3cccc4c3C(=O)N(C3CCC(=O)NC3=O)C4=O)C2)n2ncc(Cl)c2n1` (stereo partly drawn) [Compound 11.0, 2-(2,6-dioxo-3-piperidyl)-4-[2-[2-[2-[2-[[(1S,3S)-3-[[3-chloro-5-(1-ethylpropyl)pyrazolo[1,5-a]pyrimidin-7-yl]amino]cyclopentyl]amino]ethoxy]ethoxy]ethoxy]ethylamino]isoindoline-1,3-dione], the DC50 is under 10 µM.

Take `CCC(CC)c1cc(N[C@H]2CC[C@H](NCCOCCOCCOCCn3cc(CNc4cccc5c4C(=O)N(C4CCC(=O)NC4=O)C5=O)nn3)C2)n2nccc2n1` (stereo partly drawn) [Compound 12.0, 2-(2,6-dioxo-3-piperidyl)-4-[[1-[2-[2-[2-[2-[[(1S,3S)-3-[[5-(1-ethylpropyl)pyrazolo[1,5-a]pyrimidin-7-yl]amino]cyclopentyl]amino]ethoxy]ethoxy]ethoxy]ethyl]triazol-4-yl]methylamino]isoindoline-1,3-dione]: the DC50 is over 10 µM.

Regarding `CCC(CC)c1cc(N[C@H]2CC[C@H](NCCOCCOCCOCCOCCNc3cccc4c3C(=O)N(C3CCC(=O)NC3=O)C4=O)C2)n2ncc(Cl)c2n1` (stereo partly drawn) [Compound 13.0, 4-[2-[2-[2-[2-[2-[[(1S,3S)-3-[[3-chloro-5-(1-ethylpropyl)pyrazolo[1,5-a]pyrimidin-7-yl]amino]cyclopentyl]amino]ethoxy]ethoxy]ethoxy]ethoxy]ethylamino]-2-(2,6-dioxo-3-piperidyl)isoindoline-1,3-dione], the 50% degradation concentration (DC50) is under 10 µM.

For the molecule `CCC(CC)c1cc(N[C@H]2CC[C@H](NCCOCCOCCn3cc(COCCOCC(=O)N[C@H](C(=O)N4C[C@H](O)C[C@H]4C(=O)NCc4ccc(-c5scnc5C)cc4)C(C)(C)C)nn3)C2)n2nccc2n1` [Compound 14.0, (2S,4R)-4-hydroxy-N-[[4-(4-methylthiazol-5-yl)phenyl]methyl]-1-[(2S)-3,3-dimethyl-2-[[2-[2-[[1-[2-[2-[2-[[(1S,3S)-3-[[5-(1-ethylpropyl)pyrazolo[1,5-a]pyrimidin-7-yl]amino]cyclopentyl]amino]ethoxy]ethoxy]ethyl]triazol-4-yl]methoxy]ethoxy]acetyl]amino]butanoyl]pyrrolidine-2-carboxamide], the half-maximal degradation concentration (DC50) is over 10 µM.

For the molecule `CCC(CC)c1cc(N[C@H]2CC[C@H](NCCOCCOCCn3cc(CNc4cccc5c4C(=O)N(C4CCC(=O)NC4=O)C5=O)nn3)C2)n2ncc(Cl)c2n1` (stereo partly shown) [Compound 15.0], the DC50 was under 10 µM.

Turning to `CCC(CC)c1cc(N[C@H]2CC[C@H](NCCOCCOCCOCCn3cc(CNc4cccc5c4C(=O)N(C4CCC(=O)NC4=O)C5=O)nn3)C2)n2ncc(Cl)c2n1` (stereo partly shown) [Compound 16.0], the half-maximal degradation concentration (DC50) is over 10 µM.

For `CCC(CC)c1cc(N[C@H]2CC[C@H](NCC(C)N3CCN(CCNc4cccc5c4C(=O)N(C4CCC(=O)NC4=O)C5=O)CC3)C2)n2nccc2n1` (stereo partly drawn) [Compound 17.0, 2-(2,6-dioxo-3-piperidyl)-4-[2-[4-[2-[[(1S,3S)-3-[[5-(1-ethylpropyl)pyrazolo[1,5-a]pyrimidin-7-yl]amino]cyclopentyl]amino]-1-methyl-ethyl]piperazin-1-yl]ethylamino]isoindoline-1,3-dione], the half-maximal degradation concentration (DC50) is under 10 µM.

With `CCC(CC)c1cc(N[C@H]2CC[C@H](NCCN3CCN(CCOCC(=O)N[C@H](C(=O)N4C[C@H](O)C[C@H]4C(=O)NCc4ccc(-c5scnc5C)cc4)C(C)(C)C)CC3)C2)n2nccc2n1` [Compound 18.0, (2S,4R)-1-[(2S)-2-[[2-[2-[4-[2-[[(1S,3S)-3-[[5-(1-ethylpropyl)pyrazolo[1,5-a]pyrimidin-7-yl]amino]cyclopentyl]amino]ethyl]piperazin-1-yl]ethoxy]acetyl]amino]-3,3-dimethyl-butanoyl]-4-hydroxy-N-[[4-(4-methylthiazol-5-yl)phenyl]methyl]pyrrolidine-2-carboxamide], the DC50 is over 10 µM.

As for `CCC(CC)c1cc(N[C@H]2CC[C@H](NCCN3CCN(CCNc4cccc5c4C(=O)N(C4CCC(=O)NC4=O)C5=O)CC3)C2)n2nccc2n1` (stereo partly drawn) [Compound 19.0, 2-(2,6-dioxo-3-piperidyl)-4-[2-[4-[2-[[(1S,3S)-3-[[5-(1-ethylpropyl)pyrazolo[1,5-a]pyrimidin-7-yl]amino]cyclopentyl]amino]ethyl]piperazin-1-yl]ethylamino]isoindoline-1,3-dione], the DC50 is under 10 µM.

As for `CCC(CC)c1cc(N[C@H]2CC[C@H](NCC(=O)NCCCn3cc(CCOCCNc4cccc5c4C(=O)N(C4CCC(=O)NC4=O)C5=O)nn3)C2)n2nccc2n1` (stereo partly shown) [Compound 20.0], the DC50 is over 10 µM.

Regarding `CCC(CC)c1cc(N[C@H]2CC[C@H](NCC(=O)NCCCc3cn(CCOCCNc4cccc5c4C(=O)N(C4CCC(=O)NC4=O)C5=O)nn3)C2)n2nccc2n1` (stereo partly shown) [Compound 22.0], the DC50 was over 10 µM.

Take `CCC(CC)c1cc(N[C@H]2CC[C@H](NCC(=O)NCCCc3cn(CCOCCNc4cccc5c4C(=O)N(C4CCC(=O)NC4=O)C5=O)nn3)C2)n2ncc(Cl)c2n1` (stereo partly shown) [Compound 23.0]: the 50% degradation concentration (DC50) is under 10 µM.

As to `CCC(CC)c1cc(N[C@H]2CC[C@H](NCC(=O)NCCCn3cc(CCOCCNc4cccc5c4C(=O)N(C4CCC(=O)NC4=O)C5=O)nn3)C2)n2ncc(Cl)c2n1` (stereo partly shown) [Compound 24.0], the 50% degradation concentration (DC50) is under 1 µM.

On to `CCC(CC)c1cc(N[C@H]2CC[C@H](NCC(=O)NCc3cn(CCOCC(=O)N[C@H](C(=O)N4C[C@H](O)C[C@H]4C(=O)NCc4ccc(-c5scnc5C)cc4)C(C)(C)C)nn3)C2)n2nccc2n1` [Compound 25.0], for which the DC50 is over 10 µM.

(Values after patent publication US20250188084A1, “COMPOUNDS AND METHODS FOR MODULATING CDK9 ACTIVITY” (KRONOS BIO, INC., priority 2020, published 2025).)
